# Measurements from patent US6737383B1, “Herbicidal oxadiazolidines” (priority 1999, dated 2004).
# What was measured:
# soybean = experiment: Test B pre/postemergence soybean; format: in vivo, Glycine max
# Summary of the method: (§1)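 Test chemicals in a non-phytotoxic solvent mixture with surfactant were sprayed preemergence onto planted seeds and postemergence onto plants 2 to 18 cm tall (1- to 4-leaf stage). After twelve to sixteen days in a greenhouse, injury was visually rated against untreated controls from 0 (no effect) to 10 (complete control).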
# surinam grass = experiment: Test B pre/postemergence surinam grass; format: in vivo, Brachiaria decumbens
# Summary of the method: as §1
# wild oat = experiment: Test B pre/postemergence wild oat; format: in vivo, Avena fatua
# Summary of the method: as §1
# blackgrass = experiment: Test B pre/postemergence blackgrass; format: in vivo, Alopecurus myosuroides
# Summary of the method: as §1
# velvetleaf = experiment: Test B pre/postemergence velvetleaf; format: in vivo, Abutilon theophrasti
# Summary of the method: as §1
# rape = experiment: Test B pre/postemergence rape; format: in vivo, Brassica napus
# Summary of the method: as §1
# morningglory = experiment: Test B pre/postemergence morningglory; format: in vivo, Ipomoea hederacea
# Summary of the method: as §1
# giant foxtail = experiment: Test B pre/postemergence giant foxtail; format: in vivo, Setaria faberii
# Summary of the method: as §1
# purple nutsedge = experiment: Test B pre/postemergence purple nutsedge; format: in vivo, Cyperus rotundus
# Summary of the method: as §1
# bedstraw = experiment: Test B pre/postemergence bedstraw; format: in vivo, Galium aparine
# Summary of the method: as §1
# pigweed = experiment: Test B pre/postemergence pigweed; format: in vivo, Amaranthus retroflexus
# Summary of the method: as §1
# crabgrass = experiment: Test B pre/postemergence crabgrass; format: in vivo, Digitaria sanguinalis
# Summary of the method: as §1
# corn = experiment: Test B pre/postemergence corn; format: in vivo, Zea mays
# Summary of the method: as §1
# cocklebur = experiment: Test B pre/postemergence cocklebur; format: in vivo, Xanthium strumarium
# Summary of the method: as §1
# sugar beet = experiment: Test B pre/postemergence sugar beet; format: in vivo, Beta vulgaris
# Summary of the method: as §1
# wheat = experiment: Test B pre/postemergence wheat; format: in vivo, Triticum aestivum
# Summary of the method: as §1
# [1] = Postemergence, Rate 62 g/ha, scale 0 to 10, 0 is no effect, 10 is complete control
# [2] = Postemergence, Rate 500 g/ha, scale 0 (no effect) to 10 (complete control)
# [3] = Rate 62 g/ha, Preemergence, scale 0 to 10
# [4] = Rate 125 g/ha, Preemergence, scale 0 to 10 (0 no effect, 10 complete control)
# [5] = Rate 250 g/ha, Postemergence, scale 0 to 10, 0 is no effect, 10 is complete control
# [6] = Rate 500 g/ha, Preemergence, scale 0 to 10 (0 no effect, 10 complete control)
# [7] = Postemergence, Rate 125 g/ha, scale of 0 to 10 where 0 is no effect and 10 is complete control
# [8] = Preemergence, Rate 250 g/ha, scale 0 (no effect) to 10 (complete control)
compound,measurement,setting,value
CC(C)N(C(=O)n1oc(=O)n(CCCCCl)c1=O)c1ccccc1 [Compound 792],"Plant response rating, Soybean",soybean; [1],4
same,Soybean plant response rating,soybean; [2],7
same,Soybean plant response rating,soybean; [3],0
same,Soybean plant response rating,soybean; [4],0
same,Soybean plant response rating,soybean; [5],5
same,Soybean plant response rating,soybean; [6],0
same,"Plant response rating, B. signalgrass",surinam grass; [1],0
same,B. signalgrass plant response rating,surinam grass; [7],0
same,B. signalgrass plant response rating,surinam grass; [8],9
same,B. signalgrass plant response rating,"surinam grass; Rate 62 g/ha, Preemergence, scale 0 (no effect) to 10 (complete control)",0
same,B. signalgrass plant response rating,surinam grass; [4],0
same,B. signalgrass plant response rating,surinam grass; [5],0
same,B. signalgrass plant response rating,"surinam grass; Rate 500 g/ha, Postemergence, scale 0 to 10, 0 is no effect, 10 is complete control",2
same,"Plant response rating, Wild oats",wild oat; [1],0
same,Wild oats plant response rating,wild oat; [2],6
same,Wild oats plant response rating,wild oat; [3],0
same,Wild oats plant response rating,wild oat; [4],0
same,Wild oats plant response rating,wild oat; [5],2
same,"Plant response rating, Blackgrass",blackgrass; [1],4
same,Blackgrass plant response rating,blackgrass; [7],7
same,Blackgrass plant response rating,blackgrass; [2],7
same,Blackgrass plant response rating,blackgrass; [8],8
same,Blackgrass plant response rating,blackgrass; [3],1
same,Blackgrass plant response rating,blackgrass; [4],4
same,"Plant response rating, Velvetleaf",velvetleaf; [1],0
same,Velvetleaf plant response rating,velvetleaf; [2],7
same,Velvetleaf plant response rating,velvetleaf; [3],0
same,Velvetleaf plant response rating,velvetleaf; [4],3
same,Velvetleaf plant response rating,velvetleaf; [5],6
same,Velvetleaf plant response rating,velvetleaf; [6],5
same,"Plant response rating, Rape",rape; [1],3
same,Rape plant response rating,rape; [7],3
same,Rape plant response rating,rape; [2],7
same,Rape plant response rating,rape; [3],0
same,Rape plant response rating,rape; [4],0
same,Rape plant response rating,rape; [5],7
same,"Plant response rating, Morningglory",morningglory; [1],6
same,Morningglory plant response rating,morningglory; [7],7
same,Morningglory plant response rating,morningglory; [2],10
same,Morningglory plant response rating,morningglory; [3],0
same,Morningglory plant response rating,morningglory; [4],0
same,Morningglory plant response rating,morningglory; [5],10
same,Morningglory plant response rating,morningglory; [6],0
same,"Plant response rating, Giant foxtail",giant foxtail; [1],2
same,Giant foxtail plant response rating,giant foxtail; [7],9
same,Giant foxtail plant response rating,giant foxtail; [2],9
same,Giant foxtail plant response rating,giant foxtail; [8],10
same,Giant foxtail plant response rating,giant foxtail; [3],10
same,Giant foxtail plant response rating,giant foxtail; [4],10
same,Giant foxtail plant response rating,giant foxtail; [5],9
same,Giant foxtail plant response rating,giant foxtail; [6],10
same,"Plant response rating, Nutsedge",purple nutsedge; [1],0
same,Nutsedge plant response rating,purple nutsedge; [7],0
same,Nutsedge plant response rating,purple nutsedge; [2],0
same,Nutsedge plant response rating,purple nutsedge; [3],0
same,Nutsedge plant response rating,purple nutsedge; [4],0
same,Nutsedge plant response rating,purple nutsedge; [5],0
same,Nutsedge plant response rating,purple nutsedge; [6],0
same,Bedstraw plant response rating,bedstraw; [7],7
same,Bedstraw plant response rating,bedstraw; [8],4
same,Bedstraw plant response rating,bedstraw; [3],0
same,Bedstraw plant response rating,bedstraw; [4],0
same,"Plant response rating, Redroot pigweed",pigweed; [1],0
same,Redroot pigweed plant response rating,pigweed; [7],6
same,Redroot pigweed plant response rating,pigweed; [3],7
same,Redroot pigweed plant response rating,pigweed; [4],9
same,Redroot pigweed plant response rating,pigweed; [5],6
same,"Plant response rating, Crabgrass",crabgrass; [1],2
same,Crabgrass plant response rating,crabgrass; [7],9
same,Crabgrass plant response rating,crabgrass; [2],9
same,Crabgrass plant response rating,crabgrass; [8],10
same,Crabgrass plant response rating,crabgrass; [3],10
same,Crabgrass plant response rating,crabgrass; [4],10
same,Crabgrass plant response rating,crabgrass; [6],10
same,"Plant response rating, Corn",corn; [1],0
same,Corn plant response rating,corn; [7],1
same,Corn plant response rating,corn; [2],3
same,Corn plant response rating,corn; [8],4
same,Corn plant response rating,corn; [3],0
same,Corn plant response rating,corn; [4],2
same,Corn plant response rating,corn; [5],2
same,Corn plant response rating,corn; [6],4
same,"Plant response rating, Cocklebur",cocklebur; [1],0
same,Cocklebur plant response rating,cocklebur; [7],1
same,Cocklebur plant response rating,cocklebur; [2],3
same,Cocklebur plant response rating,cocklebur; [8],0
same,Cocklebur plant response rating,cocklebur; [3],0
same,Cocklebur plant response rating,cocklebur; [5],3
same,Cocklebur plant response rating,cocklebur; [6],0
same,"Plant response rating, Sugarbeets",sugar beet; [1],0
same,Sugarbeets plant response rating,sugar beet; [2],2
same,Sugarbeets plant response rating,sugar beet; [3],0
same,Sugarbeets plant response rating,sugar beet; [4],3
same,Sugarbeets plant response rating,sugar beet; [5],2
same,"Plant response rating, Wheat",wheat; [1],0
same,Wheat plant response rating,wheat; [2],3
same,Wheat plant response rating,wheat; [3],0
same,Wheat plant response rating,wheat; [4],0
same,Wheat plant response rating,wheat; [5],1
